Data: the Deep4Chem optical property database
Each block holds one compound with its values, some of them ahead of it.

Test: solvent given as SMILES

- absorption maximum (in CCCCCC): 344 nm
- absorption maximum (in CO): 344 nm
- absorption maximum (in ClCCl): 346 nm
SMILES: Cc1ccc2ccc3c(C)ccc4ccc1c2c43

- absorption maximum (in ClCCl): 538 nm
SMILES: CC[B-]1(CC)c2cccc3c4c5c(cccc5c(c23)-c2cccc(C)[n+]21)[B-](CC)(CC)[n+]1c(C)cccc1-4

- absorption maximum (in ClCCl): 343 nm
SMILES: CC(C)(C)NC(=O)c1ccc(Br)c2ccc3c4ccccc4c4ccccc4c3c12

- absorption maximum (in CO): 487 nm
- absorption maximum (in OCC(O)CO): 509 nm
- absorption maximum (in OCCO): 498 nm
- absorption maximum (in Oc1ccccc1): 548 nm
SMILES: CN(CCO)c1ccc(/N=N/c2ccc([N+](=O)[O-])cc2)cc1

- absorption maximum (in CC#N): 342 nm
- absorption maximum (in CCCCCC): 336 nm
SMILES: Nc1ccc(/C=C/c2cccnc2)cc1

- absorption maximum (in C1COCCO1): 404 nm
SMILES: COC(=O)c1ccc(/C=C2\C=C(c3ccc(C#N)cc3)OC2=O)cc1

- absorption maximum (in ClCCl): 399 nm
SMILES: COc1ccc(C2=Nc3cccc4[n+]3[B-](F)(O2)OC(c2ccc(OC)cc2)=N4)cc1

- absorption maximum (in C1CCOC1): 303 nm
SMILES: F[Si-](F)(c1ccccc1)(c1ccccc1)c1cc2ccccc2c2ccccc12

- absorption maximum (in CC#N): 392 nm
SMILES: COc1ccc2cc(/C=C/c3ccc([N+](=O)[O-])cc3)c(=O)oc2c1

- absorption maximum (in ClC(Cl)Cl): 410.5 nm
SMILES: COc1ccc(C2=Cc3c4ccccc4cc[n+]3[B-](F)(F)O2)cc1

- absorption maximum (in ClCCl): 490 nm
SMILES: Fc1ccc(C2=C(c3ccc(F)cc3)c3cccc4c3c(cc3nc5ccccc5nc34)O2)cc1

- absorption maximum (in CC#N): 341 nm
- absorption maximum (in CO): 340 nm
- absorption maximum (in ClC(Cl)Cl): 344 nm
SMILES: NCc1ccc2ccc3cccc4ccc1c2c34

- absorption maximum (in ClC(Cl)Cl): 579 nm
SMILES: Cc1cc(C)c(C2=C3C=CC(c4ccc5c(ccc6ccccc65)c4)=[N+]3[B-](F)(F)n3c2ccc3-c2ccc3c(ccc4ccccc43)c2)c(C)c1

- absorption maximum (in ClCCl): 393 nm
SMILES: COc1ccc(C#Cc2nc3ccccc3nc2-c2ccn(-c3ccccc3)c2)cc1

- absorption maximum (in CC#N): 309 nm
SMILES: CN(C)c1ccc(-n2c(-c3ccncc3)nc3nccnc32)cc1

- absorption maximum (in CO): 382 nm
SMILES: O=C(O)CCCOc1cc2ccc3cccc4ccc(c1)c2c34

- absorption maximum (in ClCCl): 338 nm
SMILES: Clc1ccc(-c2cccc3ncc(-c4ccccc4)n23)cc1

- absorption maximum (in C1CCOC1): 286 nm
SMILES: F[Si-](F)(c1ccccc1)(c1ccccc1)c1cccc2ccccc12

The next lines start with the compound.

SMILES: CC1CCC(=CS/C=C/c2ccc(/C=C/SC=C3CCC(C)CC3)cc2)CC1 (stereo not drawn)
- absorption maximum (in ClCCl): 350 nm

SMILES: CCOC(=O)C(Cc1ccc(O[Si]2(Oc3ccc(CC(NC(C)=O)C(=O)OCC)cc3)n3c4c5ccccc5c3/N=C3N=C(/N=c5/c6ccccc6/c(n52)=N/C2=NC(=N\4)/c4ccccc42)c2ccccc2\3)cc1)NC(C)=O (stereo not drawn)
- absorption maximum (in CN(C)C=O): 681 nm

SMILES: O=C(O)CCCCCn1c2ccc(Br)cc2c(=O)c2cc(S(=O)(=O)O)ccc21
- absorption maximum (in O): 416 nm

SMILES: CCCCCCCCCCCCOc1cc2c3cc(OCCCCCCCCCCCC)c(OCCCCCCCCCCCC)cc3c3c(cc(OCCCCCCCCCCCC)c4nc5cc(C#Cc6ccc(OCCCC)cc6)c(C#Cc6ccc(OCCCC)cc6)cc5nc43)c2cc1OCCCCCCCCCCCC
- absorption maximum (in ClC(Cl)Cl): 485 nm

SMILES: N#Cc1ccc(/C=C/C=C/C2=NC3C(=O)NC(N)=NC3N2[C@H]2C[C@H](O)[C@@H](CO)O2)cc1 (stereo partly drawn)
- absorption maximum (in C1COCCO1): 395 nm
- absorption maximum (in CC#N): 387 nm
- absorption maximum (in CO): 381 nm

SMILES: FC(F)(F)c1ccc2oc3nc4oc5ccc(N(c6ccccc6)c6ccccc6)cc5c4cc3c2c1
- absorption maximum (in ClC(Cl)Cl): 345 nm

SMILES: COc1ccc(N(c2ccc(/C=C(\C)c3ccccc3)cc2)c2ccc(/C=C(\C)c3ccccc3)cc2)cc1
- absorption maximum (in Cc1ccccc1): 364 nm

SMILES: CN1C(=CC2=C([O-])C(=Cc3oc4ccccc4[n+]3C)C2=C(C#N)C#N)Sc2ccccc21
- absorption maximum (in ClC(Cl)Cl): 664 nm

SMILES: [NH3+]C(Cc1ccccc1)C(=O)[O-] (stereo not drawn)
- absorption maximum (in O): 258 nm

SMILES: CC1(C)c2ccccc2N(c2ccc3c(c2)c2cc(N4c5ccccc5C(C)(C)c5ccccc54)cc4c5ccccc5n3c42)c2ccccc21
- absorption maximum (in C1CCOC1): 367 nm

SMILES: CC1=CC(C)=[N+]2C1=C(c1c3ccccc3c(C)c3ccccc13)c1c(C)cc(C)n1[B-]2(F)F
- absorption maximum (in CC#N): 503 nm
- absorption maximum (in CCCCCC): 505 nm
- absorption maximum (in CCO): 504 nm
- absorption maximum (in CN(C)C=O): 506 nm
- absorption maximum (in Cc1ccccc1): 509 nm
- absorption maximum (in ClCCl): 506 nm

SMILES: CCN(CC)c1ccc2cc(-c3nc4c5ccccc5c5ccccc5c4n3-c3ccc(C(C)(C)C)cc3)c(=O)oc2c1
- absorption maximum (in ClCCl): 410 nm

SMILES: CN(C)c1ccc(C=C/C=C/C=C/c2ccc(C#N)cc2)cc1
- absorption maximum (in C1CCOC1): 420 nm
- absorption maximum (in CC#N): 418 nm
- absorption maximum (in CCCC#N): 422 nm
- absorption maximum (in CCCCCC): 412 nm
- absorption maximum (in CCCCOCCCC): 416 nm
- absorption maximum (in CCO): 418 nm
- absorption maximum (in CCOCC): 416 nm

SMILES: Cc1cccc2c1nc1c(=O)n(C)c(=O)nc-1n2C
- absorption maximum (in CC#N): 440 nm

SMILES: CC1(C)C(/C=C2\C(=O)C(/C=C3\Nc4ccccc4C3(C)C)=C2[O-])=[NH+]c2ccccc21
- absorption maximum (in ClC(Cl)Cl): 654 nm

SMILES: COc1ccc(N(c2ccccc2)c2ccc(OC)cc2)cc1
- absorption maximum (in Cc1ccccc1): 300 nm

SMILES: FC(F)(F)c1ccc2oc3nc4oc5ccc(N6c7ccccc7Oc7ccccc76)cc5c4cc3c2c1
- absorption maximum (in ClC(Cl)Cl): 344 nm

SMILES: CCCCC(CC)Cn1c2cc(C#N)ccc2c2ccc(C#Cc3ccc4ccc5ccc(C#Cc6ccc7c8ccc(C#N)cc8n(CC(CC)CCCC)c7c6)c6ccc3c4c56)cc21 (stereo not drawn)
- absorption maximum (in ClCCl): 447 nm

SMILES: CCN(CC)c1ccc(/C=C/C2=[O+][B-](F)(F)Oc3c2c(=O)oc2cc(N(CC)CC)ccc32)cc1
- absorption maximum (in C1CCCCC1): 542 nm
- absorption maximum (in C1COCCO1): 569 nm
- absorption maximum (in CC#N): 589 nm
- absorption maximum (in CC(C)=O): 584 nm
- absorption maximum (in CCO): 581 nm
- absorption maximum (in CCOC(C)=O): 571 nm
- absorption maximum (in CO): 582 nm
- absorption maximum (in CS(C)=O): 607 nm
- absorption maximum (in Cc1ccccc1): 567 nm
- absorption maximum (in ClC(Cl)Cl): 581 nm
- absorption maximum (in ClCCl): 587 nm
- absorption maximum (in OCC(O)CO): 610 nm
- absorption maximum (in OCCO): 605 nm

SMILES: Oc1ccc(C2=[N+]3C(=C(c4ccccc4)c4cccn4[B-]3(F)F)C=C2)cc1
- absorption maximum (in ClC(Cl)Cl): 541 nm

SMILES: O=C1c2ccccc2-c2c(-c3ccc([N+](=O)[O-])cc3)c(-c3ccc([N+](=O)[O-])cc3)c(-c3ccccc3)c3cccc1c23
- absorption maximum (in CC#N): 396 nm
- absorption maximum (in CO): 400 nm

SMILES: COc1cc(/C=C/c2nc3ccccc3s2)c(OC)cc1/C=C/c1ccncc1
- absorption maximum (in C1CCOC1): 415 nm
- absorption maximum (in CC#N): 410 nm
- absorption maximum (in CN(C)C=O): 416 nm
- absorption maximum (in Cc1ccccc1): 416 nm

SMILES: C#Cn1c(-c2cc(-c3nc4ccc(C)cc4n3C#C)cc(-c3nc4ccc(C)cc4n3C#C)c2)nc2ccc(C)cc21
- absorption maximum (in ClCCl): 306.5 nm

SMILES: CCC1(CC)c2ccccc2-c2c1c1c(c3c2C(CC)(CC)c2cc(B(c4c(C)cc(C)cc4C)c4c(C)cc(C)cc4C)ccc2-3)C(CC)(CC)c2cc(B(c3c(C)cc(C)cc3C)c3c(C)cc(C)cc3C)ccc2-1
- absorption maximum (in C1CCOC1): 364 nm
- absorption maximum (in CC#N): 359 nm
- absorption maximum (in CC(C)=O): 360 nm
- absorption maximum (in CCCCCC): 362 nm
- absorption maximum (in ClC(Cl)Cl): 362 nm

SMILES: c1ccc(-n2c3ccccc3c3cc(-n4ccc5cc(-c6ccc(C7(c8ccccc8)c8ccccc8-c8ccccc87)cc6)ccc54)ccc32)cc1
- absorption maximum (in ClCCl): 308 nm

SMILES: c1ccc2c(c1)c1ccccc1n2-c1ccc(-c2ccc3nc(-c4ccc(-n5c6ccccc6c6ccccc65)cc4)nn3c2)cc1
- absorption maximum (in C1CCOC1): 341 nm

SMILES: Cn1c2cc(N3CCCCC3)c(F)cc2c(=O)c2cc(F)c(N3CCCCC3)cc21
- absorption maximum (in CCO): 368 nm

SMILES: CC(C)(C)c1ccc2c(c1)c1cc(C(C)(C)C)ccc1n2-c1ccc(N(c2ccc(-c3ccc(-c4ccc(-c5ccc(-c6ccc(-c7ccc(N(c8ccc(-n9c%10ccc(C(C)(C)C)cc%10c%10cc(C(C)(C)C)ccc%109)cc8)c8ccc(-n9c%10ccc(C(C)(C)C)cc%10c%10cc(C(C)(C)C)ccc%109)cc8)cc7)s6)s5)s4)s3)cc2)c2ccc(-n3c4ccc(C(C)(C)C)cc4c4cc(C(C)(C)C)ccc43)cc2)cc1
- absorption maximum (in ClCCl): 450 nm

SMILES: CC1(C)C(/C=C/C2=C(Cl)C(=C/C=C3/N(CCCS(=O)(=O)[O-])c4ccccc4C3(C)C)/CCC2)=[N+](CCCS(=O)(=O)[O-])c2ccccc21
- absorption maximum (in CO): 778 nm

SMILES: COc1ccc(C2=C/C(=C\c3ccc(C#N)cc3)C(=O)N2)cc1OC
- absorption maximum (in C1COCCO1): 457 nm

SMILES: CCC1(CC)c2cc(Br)ccc2-c2c1c1c(c3c2C(CC)(CC)c2cc(-c4cccs4)ccc2-3)C(CC)(CC)c2cc(-c3cccs3)ccc2-1
- absorption maximum (in C1CCOC1): 338 nm

SMILES: CCC1=C(C)C(=O)n2c1cc1c(C)c(CCC(=O)O)c(C)n1c2=O
- absorption maximum (in CC#N): 408 nm
- absorption maximum (in CC(C)=O): 413 nm
- absorption maximum (in CO): 425 nm
- absorption maximum (in CS(C)=O): 426 nm
- absorption maximum (in ClC(Cl)Cl): 428 nm
- absorption maximum (in c1ccccc1): 421 nm

SMILES: C(#Cc1nc2ccccc2s1)c1ccc(N(c2ccc(C#Cc3nc4ccccc4s3)cc2)c2ccc(C#Cc3nc4ccccc4s3)cc2)cc1
- absorption maximum (in Cc1ccccc1): 404 nm

SMILES: Cc1nc2c(ccc3c2sc(/C=C/c2cc4c5c(c2)CCCN5CCC4)[n+]3C)s1
- absorption maximum (in CO): 574 nm
- absorption maximum (in ClC(Cl)Cl): 595 nm

SMILES: Cc1ccc(N(c2ccc(C)cc2)c2ccc(-c3c4ccccc4c(-c4ccc(N(c5ccc(C)cc5)c5ccc(C)cc5)cc4)c4nsnc34)cc2)cc1
- absorption maximum (in Cc1ccccc1): 538 nm
- absorption maximum (in ClCCl): 536 nm

SMILES: Cc1cc(C)c(B2c3cc(C(C)(C)C)ccc3-c3cccc4cc(C(C)(C)C)cc2c34)c(C)c1
- absorption maximum (in C1CCCCC1): 409 nm

SMILES: Cc1ccc(-c2cc(/C=C/c3ccc(N(c4ccccc4)c4ccccc4)cc3)c(-c3ccc(C)cc3)cc2/C=C/c2ccc(N(c3ccccc3)c3ccccc3)cc2)cc1
- absorption maximum (in ClCCl): 410 nm

SMILES: CC(C)[Si](C#Cc1c2ccccc2c(C#C[Si](C(C)C)(C(C)C)C(C)C)c2nc3c(ccc4cc5ccccc5cc43)nc12)(C(C)C)C(C)C
- absorption maximum (in CCCCCC): 536 nm

SMILES: Cc1ccc([B-]2(c3ccc(C)cc3)n3nc(C(F)(F)F)cc3-c3c4ccccc4cc[n+]32)cc1
- absorption maximum (in C1CCCCC1): 377 nm
- absorption maximum (in Cc1ccccc1): 377 nm
- absorption maximum (in ClCCl): 373 nm

SMILES: COc1c(C)c2c(c(C)c1Cl)Oc1c(C=O)c(O)c(Cl)c(C)c1C(=O)O2
- absorption maximum (in ClC(Cl)Cl): 342 nm
